Reference: patent US20130225591A1, “IMIDOTHIAZOLE KINASE INHIBITORS” (priority 2009, published 2013)

target: T1, CDK5-p25 kinase (Homo sapiens, UniProt Q00535); assay: CDK5-p25 kinase enzymatic assay; type: biochemical; conditions: 50 nM-99 nM; 5 uM ATP, 0.3 nM CDK5-p25; read-out: IC50 potency, CDK5-p25 kinase enzymatic assay, 50 nM-99 nM
T1 construct: purchased Invitrogen PV4677
Protocol: CDK5-p25 kinase (Invitrogen PV4677) enzymatic activity was measured using electrophoretic separation and fluorescent detection to monitor phosphorylation of a fluorescently labeled histone H1-derived peptide substrate, FL29 (5-FAM-GGGPATPKKAKKL-CONH2, Caliper #760429)
First, 0.25 uL of serially diluted compound in DMSO at 100× concentration was transferred into each well of a 384-well polystyrene assay plate. To this was added 15 uL of a 1.67× enzyme solution (500 pM enzyme, 1 mM DTT (Sigma D9779), 1× reconstitution buffer with protease inhibitor (Caliper #700329 proprietary formulation)), followed by centrifugation for 1 min at 1000 rpm, and incubation for 5-15 min at room temperature to allow binding of compound to enzyme. To initiate the reaction, 10 uL of substrate/ATP mix (245 mM Hepes pH 7.5, 0.003% Brij 35, 0.004% Tween, 12.75 uM ATP, 3.75 uM FL29 peptide) were added to each well, followed by centrifugation at 1000 rpm for 1 min. The reaction was then incubated at room temperature for 30 min. Final assay conditions were: 0.3 nM CDK5-p25, 1.5 uM peptide, 5 uM ATP, 0.6 mM DTT, 1% DMSO, 98 mM HEPES pH 7.5.
After incubation, reactions were quenched by the addition of 45 uL Caliper termination solution (Caliper proprietary formula), followed by centrifugation at 1000 rpm for 1 min. Extent of reaction (percentage conversion of substrate to phosphorylated product) was then measured using the Caliper EZ II reader. Dose-response curves were created by plotting the inhibition of enzyme activity (normalized relative to vehicle treated and no ATP control reactions) as a function of the log of compound concentration. The curve was analyzed using a four parameter logistical fit to calculate IC50 values.

T1 sequence (Q00535 whole entry): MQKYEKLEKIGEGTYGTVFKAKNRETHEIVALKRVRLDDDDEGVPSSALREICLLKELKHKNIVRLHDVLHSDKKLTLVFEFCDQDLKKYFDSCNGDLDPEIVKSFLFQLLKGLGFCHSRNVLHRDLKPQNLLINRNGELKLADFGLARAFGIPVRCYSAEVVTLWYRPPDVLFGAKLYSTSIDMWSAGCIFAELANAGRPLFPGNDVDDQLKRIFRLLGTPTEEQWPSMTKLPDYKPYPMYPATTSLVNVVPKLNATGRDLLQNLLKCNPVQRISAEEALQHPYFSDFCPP
T1 sequence (Q15078 99-307 partner limits assumed): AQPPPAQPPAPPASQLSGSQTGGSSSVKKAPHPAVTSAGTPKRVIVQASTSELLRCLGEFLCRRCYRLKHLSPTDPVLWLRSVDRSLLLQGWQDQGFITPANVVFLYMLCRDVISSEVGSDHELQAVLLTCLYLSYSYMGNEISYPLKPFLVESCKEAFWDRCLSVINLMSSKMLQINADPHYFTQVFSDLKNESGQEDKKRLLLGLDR

Structure (SMILES)	IC50
O=C(Cc1ccc(-c2ccncc2)cc1)Nc1ncn2c(C(F)(F)F)csc12 [Example 12, 2-(4-pyridin-4-ylphenyl)-N-[3-(trifluoromethyl)imidazo[5,1-b][1,3]thiazol-7-yl]acetamide]	50 to 99 nM
O=C(Cc1ccc(N2CCCC2=O)cc1)Nc1ncn2c(C(F)(F)F)csc12 [Example 17, 2-[4-(2-oxopyrrolidin-1-yl)phenyl]-N-[3-(trifluoromethyl)imidazo[5,1-b][1,3]thiazol-7-yl]acetamide]	50 to 99 nM
Cn1cc(-c2ccc(CC(=O)Nc3ncn4c(C(F)(F)F)csc34)cc2)cn1 [Example 20, 2-[4-(1-methyl-1H-pyrazol-4-yl)phenyl]-N-[3-(trifluoromethyl)imidazo[5,1-b][1,3]thiazol-7-yl]acetamide]	50 to 99 nM

Other lines, results leading:

IC50	Structure (SMILES)
50 to 99 nM	O=C(Nc1ncn2c(C(F)(F)F)csc12)C(O)c1ccc2ccccc2c1 (single isomer, unassigned) [Example 44, (R or S)-2-hydroxy-2-(2-naphthyl)-N-[3-(trifluoromethyl)imidazo[5,1-b][1,3]thiazol-7-yl]acetamide]
50 to 99 nM	O=C(Nc1ncn2c(C(F)(F)F)csc12)C(Cl)c1ccc2ccccc2c1 (single isomer, unassigned) [Example 45, (R or S)-2-chloro-2-(2-naphthyl)-N-[3-(trifluoromethyl)imidazo[5,1-b][1,3]thiazol-7-yl]acetamide]
50 to 99 nM	O=C(Cc1ccc(-n2ccnc2)cc1)Nc1ncn2c(C(F)(F)F)csc12 [Example 23, 2-[4-(1H-imidazol-1-yl)phenyl]-N-[3-(trifluoromethyl)imidazo[5,1-b][1,3]thiazol-7-yl]acetamide]
50 to 99 nM	O=C(Cc1ccc(-c2ccnnc2)cc1)Nc1ncn2c(C(F)(F)F)csc12 [Example 26, 2-(4-pyridazin-4-ylphenyl)-N-[3-(trifluoromethyl)imidazo[5,1-b][1,3]thiazol-7-yl]acetamide]
50 to 99 nM	NCc1ccc(CC(=O)Nc2ncn3c(C(F)(F)F)csc23)cc1 [Example 27, 2-[4-(aminomethyl)phenyl]-N-[3-(trifluoromethyl)imidazo[5,1-b][1,3]thiazol-7-yl]acetamide]
50 to 99 nM	O=C(Cc1ccc2c(c1)OCO2)Nc1ncn2c(C(F)(F)F)csc12 [Example 30, 2-(1,3-benzodioxol-5-yl)-N-[3-(trifluoromethyl)imidazo[5,1-b][1,3]thiazol-7-yl]acetamide]
50 to 99 nM	CN(C)c1ccc(CC(=O)Nc2ncn3c(C(F)(F)F)csc23)cc1 [Example 31, 2-[4-(dimethylamino)phenyl]-N-[3-(trifluoromethyl)imidazo[5,1-b][1,3]thiazol-7-yl]acetamide]

same assay, conditions: 500 nM-3 μM; 5 uM ATP, 0.3 nM CDK5-p25; read-out: IC50 potency, CDK5-p25 kinase enzymatic assay, 500 nM-3 μM

IC50	Structure (SMILES)
500 to 3000 nM	O=C(Cc1cc2ccccc2cn1)Nc1ncn2c(C(F)(F)F)csc12 [Example 8, 2-isoquinolin-3-yl-N-[3-(trifluoromethyl)imidazo[5,1-b][1,3]thiazol-7-yl]acetamide]
500 to 3000 nM	NC(C(=O)Nc1ncn2c(C(F)(F)F)csc12)c1ccc2ccccc2c1 (stereo not shown) [Example 15, 2-amino-2-(2-naphthyl)-N-[3-(trifluoromethyl)imidazo[5,1-b][1,3]thiazol-7-yl]acetamide]
500 to 3000 nM	COc1ccc2cc(C(C)C(=O)Nc3ncn4c(C(F)(F)F)csc34)ccc2c1 (stereo not shown) [Example 18, 2-(6-methoxy-2-naphthyl)-N-[3-(trifluoromethyl)imidazo[5,1-b][1,3]thiazol-7-yl]propanamide]
500 to 3000 nM	O=C(Cc1cn2cccnc2n1)Nc1ncn2c(C(F)(F)F)csc12 [Example 28, 2-imidazo[1,2-a]pyrimidin-2-yl-N-[3-(trifluoromethyl)imidazo[5,1-b][1,3]thiazol-7-yl]acetamide]

same assay, conditions: 5 uM ATP, 0.3 nM CDK5-p25; read-out: IC50 potency, CDK5-p25 kinase enzymatic assay, 100 nM-499 nM

Structure (SMILES)	IC50
COc1cccc(-c2ccc(CC(=O)Nc3ncn4c(C(F)(F)F)csc34)cc2)c1 [Example 10, 2-(3′-methoxybiphenyl-4-yl)-N-[3-(trifluoromethyl)imidazo[5,1-b][1,3]thiazol-7-yl]acetamide]	100 to 499 nM
O=C(CC1CCOCC1)Nc1ncn2c(C(F)(F)F)csc12 [Example 21, 2-(tetrahydro-2H-pyran-4-yl)-N-[3-(trifluoromethyl)imidazo[5,1-b][1,3]thiazol-7-yl]acetamide]	100 to 499 nM
Cc1cc(CC(=O)Nc2ncn3c(C(F)(F)F)csc23)on1 [Example 22, 2-(3-methylisoxazol-5-yl)-N-[3-(trifluoromethyl)imidazo[5,1-b][1,3]thiazol-7-yl]acetamide]	100 to 499 nM

The next lines start with the values.

IC50	Structure (SMILES)
100 to 499 nM	N[C@H]1CC[C@H](CC(=O)Nc2ncn3c(C(F)(F)F)csc23)CC1 [Example 25, 2-(trans-4-amino-cyclohexyl)-N-[3-(trifluoromethyl)imidazo[5,1-b][1,3]thiazol-7-yl]acetamide]
100 to 499 nM	O=C(Cc1cn2ccccc2n1)Nc1ncn2c(C(F)(F)F)csc12 [Example 29, 2-imidazo[1,2-a]pyridin-2-yl-N-[3-(trifluoromethyl)imidazo[5,1-b][1,3]thiazol-7-yl]acetamide]
100 to 499 nM	O=C(Cc1cncnc1)Nc1ncn2c(C(F)(F)F)csc12 [Example 32, 2-pyrimidin-5-yl-N-[3-(trifluoromethyl)imidazo[5,1-b][1,3]thiazol-7-yl]acetamide]

same assay, conditions: '<50 nM'; 5 uM ATP, 0.3 nM CDK5-p25; read-out: IC50 potency, CDK5-p25 kinase enzymatic assay, <50 nM

IC50	Structure (SMILES)
< 50 nM	O=C(Cc1ccc(N2CCOC2=O)cc1)Nc1ncn2c(C(F)(F)F)csc12 [Example 1, 2-[4-(2-Oxo-1,3-oxazolidin-3-yl)phenyl]-N-[3-(trifluoromethyl)imidazo[5,1-b][1,3]thiazol-7-yl]acetamide]
< 50 nM	O=C(Cc1ccc2ccccc2c1)Nc1ncn2c(C(F)(F)F)csc12 [Example 2, 2-(2-naphthyl)-N-[3-(trifluoromethyl)imidazo[5,1-b][1,3]thiazol-7-yl]acetamide]
< 50 nM	O=C(Cc1ccc2ncccc2c1)Nc1ncn2c(C(F)(F)F)csc12 [Example 3, 2-quinolin-6-yl-N-[3-(trifluoromethyl)imidazo[5,1-b][1,3]thiazol-7-yl]acetamide]
< 50 nM	O=C(Cc1ccc2ccncc2c1)Nc1ncn2c(C(F)(F)F)csc12 [Example 4, 2-isoquinolin-7-yl-N-[3-(trifluoromethyl)imidazo[5,1-b][1,3]thiazol-7-yl]acetamide]
< 50 nM	O=C(Cc1ccc2cnccc2c1)Nc1ncn2c(C(F)(F)F)csc12 [Example 5, 2-isoquinolin-6-yl-N-[3-(trifluoromethyl)imidazo[5,1-b][1,3]thiazol-7-yl]acetamide]
< 50 nM	COc1ccc2cc(CC(=O)Nc3ncn4c(C(F)(F)F)csc34)ccc2c1 [Example 6, 2-(6-methoxy-2-naphthyl)-N-[3-(trifluoromethyl)imidazo[5,1-b][1,3]thiazol-7-yl]acetamide]
< 50 nM	O=C(Cc1ccc(Cl)nc1)Nc1ncn2c(C(F)(F)F)csc12 [Example 7, 2-(6-chloropyridin-3-yl)-N-[3-(trifluoromethyl)imidazo[5,1-b][1,3]thiazol-7-yl]acetamide]
< 50 nM	COc1ccc2ccc(CC(=O)Nc3ncn4c(C(F)(F)F)csc34)cc2c1 [Example 9, 2-(7-methoxy-2-naphthyl)-N-[3-(trifluoromethyl)imidazo[5,1-b][1,3]thiazol-7-yl]acetamide]
< 50 nM	O=C(Cc1ccc(-c2cccnc2)cc1)Nc1ncn2c(C(F)(F)F)csc12 [Example 11, 2-(4-pyridin-3-ylphenyl)-N-[3-(trifluoromethyl)imidazo[5,1-b][1,3]thiazol-7-yl]acetamide]
< 50 nM	O=C(Cc1ccc2cccnc2c1)Nc1ncn2c(C(F)(F)F)csc12 [Example 13, 2-quinolin-7-yl-N-(3-(trifluoromethyl)imidazo[5,1-b][1,3]thiazol-7-yl]acetamide]
< 50 nM	COc1cccc2cc(CC(=O)Nc3ncn4c(C(F)(F)F)csc34)ccc12 [Example 14, 2-(5-methoxy-2-naphthyl)-N-[3-(trifluoromethyl)imidazo[5,1-b][1,3]thiazol-7-yl]acetamide]
< 50 nM	O=C(Cc1ccc(-c2cn[nH]c2)cc1)Nc1ncn2c(C(F)(F)F)csc12 [Example 16, 2-[4-(1H-pyrazol-4-yl)phenyl]-N-(3-(trifluoromethyl)imidazo[5,1-b][1,3]thiazol-7-yl]acetamide]
< 50 nM	O=C(Cc1ccc(-c2cc[nH]n2)cc1)Nc1ncn2c(C(F)(F)F)csc12 [Example 19, 2-[4-(1H-pyrazol-3-yl)phenyl]-N-[3-(trifluoromethyl)imidazo[5,1-b][1,3]thiazol-7-yl]acetamide]
< 50 nM	O=C(Cc1cccc(-c2cn[nH]c2)c1)Nc1ncn2c(C(F)(F)F)csc12 [Example 24, 2-[3-(1H-pyrazol-4-yl)phenyl]-N-[3-(trifluoromethyl)imidazo[5,1-b][1,3]thiazol-7-yl]acetamide]
